Where “and” joins values, the source holds several entries; their conditions need not be identical. Equal entries are not always repeated.
Tests used:
Male Sprague-Dawley rats = assay: Hyperuricemia and serum nitrites/nitrates (NOx) in rats, Example 2; format: in vivo; details: for serum uric acid: OA 750 mg/kg/day gavage, AP 150 mg/L drinking water; for Serum nitrites and nitrates (NOx): chemiluminescence
Method: Male Sprague-Dawley rats were housed in standard conditions and fed normal diets. We induced hyperuricemia with an uricase inhibitor, oxonic acid (OA; 750 mg/kg/day), by gavage, with control rats receiving vehicle. Allopurinol (AP) was used to block hyperuricemia by placing AP in the drinking water (150 mg/L). Rats were divided into four groups: (1) Control, (2) AP only, (3) OA only, and (4) OA+AP. Systolic blood pressure was measured using a tail-cuff sphygmomanometer. The amount of drinking water consumed and changes in body weight were noted. Rats were sacrificed at one and seven days. Serum was analyzed for uric acid concentration and nitrites/nitrates (NOx) by chemiluminescence method. (Prabhakar SS: Inhibition of mesangial iNOS by reduced extracellular pH is associated with uncoupling of NADPH oxidation. Kidney Int 61:2015-2024, 2002). Statistical analysis between subgroups was performed using ANOVA.

[1] = test system: remnant kidney rats (5/6 nephrectomy); assay: Micropuncture (glomerular hemodynamics) in remnant kidney rats; format: in vivo, Sprague-Dawley rats; parameters: SNGFR lower than RK control group / glomerular plasma flow lower than RK control group / Kf lower than RK control group / afferent resistance higher compared to RK control / efferent resistance higher compared to RK control: concentration or dose not given beside the values
Method: (§1) Experimental Design: All animal procedures were approved by the Animal Care Committee. Male 300-350 g Sprague-Dawley rats were used in all experiments.
(§2) Hyperuricemia in remnant kidney rats on normal sodium diet: Under light anesthesia with ether, 5/6 nephrectomy was performed by removal of the right kidney and selective ligation of 2-3 branches of left renal artery. To induce hyperuricemia rats were given OA (750 mg/kg) by gastric gavage starting the day after the renal ablation. To prevent hyperuricemia AP was administered in the drinking water (150 mg/L). The following groups were studied: 5/6 Nx (n=10); 5/6 Nx+OA (n=12) and 5/6 Nx+OA+AP (n=13). Systolic blood pressure, proteinuria and serum uric acid were measured at baseline and after 25-28 days of follow-up. Micropuncture studies were performed at 4 weeks.
(§3) Micropuncture: Animals were anesthetized with pentobarbital sodium (30 mg/kg ip) and placed on a thermoregulated table to maintain body temperature at 37° C. Trachea, jugular veins, femoral arteries, and the left ureter were catheterized with polyethylene tubing (PE-240, PE-50, and PE-10). The left kidney was exposed, placed in a Lucite holder, sealed with agar, and covered with Ringer's solution. Mean arterial pressure (MAP) was monitored with a pressure transducer (Model p23 db; Gould, San Juan, PR) and recorded on a polygraph (Grass Instruments, Quincy, Mass., USA). Blood samples were taken periodically and replaced with blood from a donor rat. Rats were maintained under euvolemic conditions by infusion of 10 ml/kg of body weight of isotonic rat plasma during surgery, followed by an infusion of 25% polyfructosan, at 2.2 ml/h (Inutest, Laevosan-Gesellschaft, Linz, Austria). After 60 min, five to six 3-min collection samples of proximal tubular fluid were obtained to determine flow rate and polyfructosan concentration. Intratubular pressure under free-flow and stop-flow conditions and peritubular capillary pressure were measured in other proximal tubules with a servo-null device (Servo Nulling Pressure System; Instrumentation for Physiology and Medicine, San Diego, Calif., USA). Polyfructosan was measured in plasma samples. Glomerular colloid osmotic pressure was estimated in protein from blood of the femoral artery (Ca) and surface efferent arterioles (Ce). Polyfructosan concentrations were determined by the technique of Davidson and Sackner (Davidson W D, Sackner Mass.: Simplification of the Antrhone Method for the Determination of Inulin in Clearance Studies. J. Lab Clin. Med. 62:351-356, 1963). The volume of fluid collected from individual proximal tubules was estimated from the length of the fluid column in a constant bore capillary tube of known internal diameter. Concentration of tubular polyfructosan was measured by the method of Vurek and Pegram (Vurek G G, Pegram S E: Fluorometric method for the determination of nanogram quantities of inulin. Ann. Biochem 16:409-419, 1966). Protein concentration in afferent and efferent samples was determined according to the method of Viets et al. (Viets J W, Deen W M, Troy J L, Brenner B M: Determination of serum protein concentration in nanoliter blood samples using fluorescamine or 9-phthalaldehyde. Anal. Biochem 88:513-521, 1978). MAP, GFR, single-nephron GFR (SNGFR), glomerular capillary hydrostatic pressure (Pgc), single-nephron plasma flow (QA), afferent (RA) and efferent (RE) resistances, and Kf, were calculated according to equations given elsewhere (Baylis C, Deen W M, Myers B D, Brenner B M: Effects of some vasodilator drugs on transcapillary fluid exchange in renal cortex. Am. J. Physiol 230:1148-1158, 1976).
(§4) Statistical analysis. Values are expressed as mean±standard error (SE). Differences between groups were evaluated by ANOVA with appropriate correction for multiple comparisons (Bonferroni). The relation between variables was assessed by correlation analysis.

[2] = test system: normal rats on normal sodium diet; assay: Micropuncture (glomerular hemodynamics) in normal rats on normal sodium diet; format: in vivo, Sprague-Dawley rats
Method: as §1
(§5) Hyperuricemia in normal rats on normal sodium diet: To produce hyperuricemia, rats were administered oxonic acid (OA) (Sigma, St Louis Mo., USA) 750 mg/kg body weight by gastric gavage. To prevent the rise of serum uric acid induced by OA, allopurinol (AP) (Sigma, St Louis Mo., USA) was administered in drinking water (150 mg/L). We studied the following groups: Control (n=8); OA (n=7) and OA plus allopurinol (n=9). Systolic blood pressure and serum uric acid were measured at baseline and after 30-33 days of follow-up. Micropuncture studies were performed at 5 weeks.
as §3, §4

[3] = test system: normal rats on normal sodium diet; assay: Hyperuricemia in normal rats on normal sodium diet: serum uric acid, systolic blood pressure, body weight; format: in vivo, Sprague-Dawley rats
Method: as §1, §5
(§6) Evaluation: In all studies, systolic blood pressure (SBP) was measured by tail cuff sphyngomanometer using an automated system (Narco Biosystems, Houston Tex., USA). All animals were preconditioned for blood pressure measurements 1 week before each experiment. Proteinuria was determined by turbidimetry by the method of trichloroacetic acid (Henry R J, Sobel Ch, Segalove M: Turbidimetric determination of proteins with sulfosalicylic and trichloroacetic acids. Proc Soc Exp Biol Med 92:748-751, 1956). Serum uric acid was measured by colorimetric phosphotungstic acid method using a commercial kit (Wiener Lab, Argentina).
as §4

[4] = test system: normal rats on normal sodium diet; assay: Renal histology, afferent arteriole morphology in normal rats; format: in vivo, Sprague-Dawley rats
Method: as §5
(§7) Renal Histology: After the micropuncture study kidneys and remnant kidneys were washed by perfusion with PBS and then fixed with 4% paraformaldehyde. Renal biopsies were embedded in paraffin. Four μm sections of fixed tissue were stained with periodic acid Schiff (PAS) reagent. Arteriolar morphology was assessed by indirect peroxidase immunostaining for alpha-smooth muscle actin (DAIO Corp. Carpinteria, Calif., USA). In addition in remnant kidney rats glomerulosclerosis and fibrosis was assessed with Masson's trichrome stain and tubulointerstitial lymphocytes were assessed by indirect immunoperoxidase immunostaining for anti-CD-5.
Quantification of morphology: Quantifications were performed blinded. […] The media/lumen ratio was calculated by the outline/inline relationship.

[5] = test system: remnant kidney rats (5/6 nephrectomy); assay: Renal histology in remnant kidney rats; format: in vivo, Sprague-Dawley rats; details: mean±SE
Method: as §2, §7
Quantification of morphology: Quantifications were performed blinded. Arteriolopathy of afferent arterioles was evaluated as previously described (Sanchez-Lozada L G, Tapia E, Avila-Casado C, Soto V, Franco M, Santamaria J, Nakagawa T, Rodriguez-Iturbe B, Johnson R J, Herrera-Acosta J: Mild hyperuricemia induces glomerular hypertension in normal rats. Am. J. Physiol Renal Physiol 283:F1105-F1110, 2002). In brief, only vessels adjacent to glomeruli were selected. For each arteriole, the outline of the vessel and its internal lumen (excluding the endothelium) was generated using computer analysis to calculate the total medial area (outline-inline), in 10 arterioles per biopsy. The media/lumen ratio was calculated by the outline/inline relationship.
Glomerulosclerosis was evaluated in Masson's trichrome stained sections. The degree of sclerosis was scored as follows: in each biopsy the numbers of glomeruli with segmental, mesangial and global sclerosis as well as normal glomerular tufts were assessed. The resulting index in each animal was expressed as the percent of sclerosed glomeruli.
Tubulointerstitial fibrosis analysis was performed by a pathologist unaware of the origin of each kidney section. Evaluation was performed using slides stained with Masson's trichrome. Five noncrossed fields ([…], enlarged ×40) per biopsy were analyzed, using light microscopy (Olympus B-51. Olympus American, Melville, N.Y.) and captured with a digital video camera (CoolSnap Pro, Media Cybernetics Silver Spring, Md.). Each picture was processed on a computer and analyzed using Image-Pro and Photoshop 7 (Adobe Systems, SanJose, Calif.). Using the capabilities of color recognition by this software, a blue color was selected for positive areas. After selection, these areas were quantified (pixel unit) using the histogram function of the software. For each field, the number of positive areas was expressed as a fraction of the tubulointerstitial area (positive areas divided by the overall field area). Finally, for each biopsy, the mean fractional amount of positive areas was obtained by averaging the values obtained from 5 fields examined. […]

[6] = test system: remnant kidney rats (5/6 nephrectomy); assay: Hyperuricemia in remnant kidney rats: serum uric acid, systolic blood pressure, proteinuria, body weight; format: in vivo, Sprague-Dawley rats
Method: as §1, §2, §6, §4

[7] = micropuncture at 4 weeks, mean±SE
[8] = micropuncture at 5 weeks, mean±SE

Oc1ncnc2[nH]ncc12 [AP, allopurinol]
change in NOx concentration (Male Sprague-Dawley rats; rats treated with AP alone): did not show a significant change | change in serum UA concentration (Male Sprague-Dawley rats; rats treated with AP alone): did not show a significant change | serum uric acid (Male Sprague-Dawley rats; rats, 1 day): 1.52 ± 0.3 mg/dL | Serum nitrites and nitrates (NOx) (Male Sprague-Dawley rats; rats, 1 day): 17.4 ± 0.8 µmol/L | serum uric acid (Male Sprague-Dawley rats; rats, 7 days): 0.3 ± 0.2 mg/dL | Serum nitrites and nitrates (NOx) (Male Sprague-Dawley rats; rats, 7 days): 25.0 ± 0.8 µmol/L | PGC, in words ([1]; AP with oxonic acid, in the presence of systemic hypertension): normal and significantly lower than RK hyperuricemic rats | SNGFR (single-nephron GFR) [1, 7]: 53 nL/min | effect on glomerular hemodynamic alterations of hyperuricemia ([2]; concomitant with oxonic acid): prevented these alterations | effect on the hypertension induced by oxonic acid ([3]; concurrent with oxonic acid): prevented | effect on the increase of serum uric acid induced by oxonic acid ([3]; concurrent with oxonic acid): prevented | effect on thickening of afferent arterioles ([4]; with oxonic acid): prevented | AA M/L (afferent arteriole media to lumen ratio) [5]: 1.8 | effect on SBP ([6]; concomitant with oxonic acid): only a marginal effect | effect on hyperuricemia ([6]; concomitant with oxonic acid): prevented | effect on proteinuria ([6]; concomitant with oxonic acid): prevented

O=C(O)c1nc(=O)[nH]c(=O)[nH]1 [OA, oxonic acid]
reduction of serum NOx vs control (Male Sprague-Dawley rats; hyperuricemic rats at both 1 day and 7 days): 40-50% | serum uric acid (Male Sprague-Dawley rats; rats, 1 day): 1.7 ± 0.7 mg/dL | Serum nitrites and nitrates (NOx) (Male Sprague-Dawley rats; rats, 1 day): 15.6 ± 0.4 µmol/L | serum uric acid (Male Sprague-Dawley rats; rats, 7 days): 1.8 ± 0.4 mg/dL | Serum nitrites and nitrates (NOx) (Male Sprague-Dawley rats; rats, 7 days): 14.6 ± 1.1 µmol/L | systolic blood pressure (Male Sprague-Dawley rats; rats, 7 days, tail cuff): 178±18 mm Hg | Kf lower than RK control group [1]: 50% | SNGFR lower than RK control group [1]: 40% | afferent resistance higher compared to RK control [1]: 120% | efferent resistance higher compared to RK control [1]: 80% | glomerular plasma flow lower than RK control group [1]: 40% | GFR [1, 7]: 0.4 ± 0.1 mL/min | KF (ultrafiltration coefficient) [1, 7]: 0.02 nl/s/mmHg and 0.024 ± 0.003 nl/s/mmHg | MAP (mean arterial pressure) [1, 7]: 184 ± 6 mmHg | PGC (glomerular capillary pressure) [1, 7]: 62 mmHg and 62 ± 1 mmHg | QA (glomerular plasma flow) [1, 7]: 147 nL/min and 146.5 ± 20.4 nL/min | RA (afferent resistance) [1, 7]: 4.6 dyn/s/cm^−5 and 4.55 ± 0.66 dyn/s/cm^−5 | RE (efferent resistance) [1, 7]: 1.8 dyn/s/cm^−5 and 1.83 ± 022 dyn/s/cm^−5 | SNGFR (single-nephron GFR) [1, 7]: 40.6 nL/min and 40.7 ± 6.0 nL/min | afferent resistance higher ([2]; hyperuricemic vs control): 45% | decrease of SNGFR ([2]; hyperuricemic vs control): 35% | efferent resistance higher ([2]; hyperuricemic vs control): 64% | GFR [2, 8]: 0.71 ± 0.1 mL/min | KF (ultrafiltration coefficient) [2, 8]: 0.027 ± 0.002 nl/s/mmHg | MAP (mean arterial pressure) [2, 8]: 131 ± 4 mmHg | PGC (glomerular capillary hydrostatic pressure) [2, 8]: 56 ± 2 mmHg | QA (single-nephron plasma flow) [2, 8]: 66.1 ± 7.2 nL/min | RA (afferent resistance) [2, 8]: 4.82 ± 0.67 dyn/s/cm^−5 | RE (efferent resistance) [2, 8]: 2.83 ± 0.19 dyn/s/cm^−5 | SNGFR (single-nephron GFR) [2, 8]: 17.8 ± 2 nL/min | SUA (serum uric acid) ([3]; normal salt diet, OA 750 mg/kg gavage, AP 150 mg/L drinking water, 30-33 days, mean±SE): 5.4 ± 0.2 mg/dL | SBP (systolic blood pressure) ([3]; normal salt diet, tail cuff, 30-33 days, mean±SE): 134 ± 3 mmHg | increment of serum uric acid ([3]; vs control): two-fold | AA M/L (afferent arteriole media/lumen ratio) ([4]; after micropuncture, mean±SE): 5.1 ± 0.6 | Glomerulosclerosis ([5]; Masson's trichrome): 0.33 ± 0.07% | TI Fibrosis ([5]; Masson's trichrome): 780.2 ± 55.0 arbitrary units | TI CD5 + (tubulointerstitial infiltration of CD5 positive cells) ([5]; immunoperoxidase): 26.1 cells/mm^2 and 26.1 ± 2.99 cells/mm^2 | AA M/L (afferent arteriole media to lumen ratio) [5]: 6.4 ± 0.37 | AA M/L (afferent arteriole media to lumen ratio) ([5]; listed as Oxonic acid): 6.4 | Uprot (proteinuria) ([6]; 25-28 days, mean±SE): 246 ± 29 mg/day | SUA (serum uric acid) ([6]; OA 750 mg/kg gavage, AP 150 mg/L drinking water, 25-28 days, mean±SE): 4.5 ± 0.4 mg/dL | SBP (systolic blood pressure) ([6]; tail cuff, 25-28 days, mean±SE): 191 ± 10 mmHg | additional rise of proteinuria ([6]; vs RK control): two fold | further increase of SBP ([6]; vs RK control): 30 mmHg | increase of serum uric acid ([6]; vs RK control): two fold

— US20080317728A1, “Lowering Uric Acid to Prevent or Accelerate Recovery of Acute Renal Failure” (UNIVERSITY OF FLORIDA RESEARCH FOUNDATION, INC., priority 2004, published 2008)
